In US11274332B2, “Methods of administering 3,4-diaminopyridine” (SERB SA, priority 2011, dated 2022):

Molecular target: T1, cloned human Kv1.5 potassium channel (Homo sapiens, UniProt P22460)
T1 construct: expressed in transfected cells
Experiment: PatchXpress inhibition of cloned human Kv1.5 in CHO cells (Example 6)
Assay type: cell-based
Conditions: hKv1.5, up to 3000 μM
Excerpt: The objective of this study was to examine the in vitro effects and determine the […] of 3,4-DAP phosphate and the metabolite N-(4-aminopyridin-3-yl) acetamide HCl on the following ion channels: cloned human Kv1.1 potassium channel (encoded by the human KCNA1 gene, expressed in HEK293 cells), cloned human Kv1.2 potassium channel (encoded by the human KCNA2 gene, expressed in HEK293 cells), cloned human Kv1.3 potassium channel (encoded by the human KCNA3 gene, expressed in CHO cells), cloned human Kv1.4 potassium channel (encoded by the human KCNA4 gene, expressed in HEK293 cells), cloned human Kv1.5 potassium channel (encoded by the human KCNA5 gene and expressed in CHO cells), responsible for IKur, ultra-rapid delayed rectifier potassium current.
Chemicals used in solution preparation were purchased from Sigma-Aldrich (St. Louis, Mo.), unless otherwise noted, and were of ACS reagent grade purity or higher. Stock solutions of each test article (100 mM, 30 mM and 1.00 mM 3,4-DAP phosphate and 100 mM N-(4-aminopyridin-3-yl)acetamide) were prepared in sterile water and stored refrigerated. […]
In preparation for a recording session, intracellular solution was loaded into the intracellular compartments of the Sealchip16. […] After establishment of a whole-cell configuration, membrane currents were recorded using dual-channel patch clamp amplifiers in the PatchXpress®. […]

T1 sequence (P22460 whole entry): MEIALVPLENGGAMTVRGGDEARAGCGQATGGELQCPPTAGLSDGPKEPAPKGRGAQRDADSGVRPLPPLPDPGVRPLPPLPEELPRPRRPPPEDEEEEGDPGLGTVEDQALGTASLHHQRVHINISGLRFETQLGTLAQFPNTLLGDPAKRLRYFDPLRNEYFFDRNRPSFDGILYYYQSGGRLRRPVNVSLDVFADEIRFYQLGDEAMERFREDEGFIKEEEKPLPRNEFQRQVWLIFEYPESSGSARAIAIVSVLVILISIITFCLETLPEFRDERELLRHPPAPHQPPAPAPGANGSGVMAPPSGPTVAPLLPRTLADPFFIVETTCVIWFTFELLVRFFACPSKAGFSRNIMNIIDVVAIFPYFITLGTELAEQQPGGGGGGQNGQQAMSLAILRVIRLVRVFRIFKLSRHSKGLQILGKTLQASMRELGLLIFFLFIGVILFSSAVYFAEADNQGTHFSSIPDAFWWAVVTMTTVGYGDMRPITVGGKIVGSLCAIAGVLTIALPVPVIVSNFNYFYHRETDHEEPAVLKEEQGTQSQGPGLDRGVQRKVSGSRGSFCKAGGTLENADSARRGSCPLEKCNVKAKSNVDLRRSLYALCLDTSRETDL

## CC(=O)Nc1cnccc1N [3-N-acetyl amifampridine, N-(4-aminopyridin-3-yl)acetamide]
  activity on K+ channel: inactive
Listed as N-acetyl metabolite
  activity on K+ channel: not active
